Assay results published in patent publication US20120309767A1, “PROCESS FOR THE PREPARATION OF ALPHA FORM OF IMATINIB MESYLATE” (priority 2010, published 2012).
Read-outs that look alike come from different tables or passages of the source.

Settings: 40° C. and 75 RH; for Identification by IR: vs working standard of Imatinib Mesylate (Form-α)
Procedure: FTIR (Fourier transform infrared spectrophotometer) • Make: SHIMADZU, IR Prestige-21 • Sample preparation: KBr pellets • 3. […] HPLC: Used Agilent 1200, VWD detector, system gradient Instrument conditions are:
A stability study was performed on the alpha form of imatinib mesylate at 40° C. and 75 RH for 3 months.

In the case of `CS(=O)(=O)O.Cc1ccc(NC(=O)c2ccc(CN3CCN(C)CC3)cc2)cc1Nc1nccc(-c2cccnc2)n1` [Example 2], the “Assay [by HPLC] (on anhydrous)” value (1M) is reported as 99.94%, the Descriptions (1M) is reported as “White” and the “Water content by KF” value (1M) is reported as 0.55 % w/w. The “Identification by IR” value (1M) was “concordant”, the “Assay [by HPLC] (on anhydrous)” value (2M) was 99.70% and the Descriptions (2M) was “White”. For the same molecule, the “Related Substance [by HPLC] Unknown impurity RRT = 0.81” value (2M) was 0.03 % w/w, the “Water content by KF” value (2M) was 0.61 % w/w and the “Identification by IR” value (2M) was “concordant”. The “Assay [by HPLC] (on anhydrous)” value (3M) was 99.75%, the Descriptions (3M) was “White” and the “Related Substance [by HPLC] Known impurities: Impurity-1” value (3M) was 0.02 % w/w. For the same molecule, the “Related Substance [by HPLC] Unknown impurity RRT = 0.81” value (3M) was 0.02 % w/w, the “Water content by KF” value (3M) was 0.56 % w/w and the “Identification by IR” value (3M) was “concordant”. The “Assay [by HPLC] (on anhydrous)” value (Initial) was 99.98%, the Descriptions (Initial) was “White” and the “Related Substance [by HPLC] Total impurities” value (Initial) was 0.04 % w/w. The “Related Substance [by HPLC] Unknown impurity RRT = 0.81” value (Initial) was 0.04 % w/w, the “Water content by KF” value (Initial) was 0.52 % w/w and the “Identification by IR” value (Initial) was “concordant”.
